Data as given in patent US7811352B2, “Fertilizer compositions and methods of using” (priority 2005, dated 2010).

Key:
Type in all cases: in vivo
[1] = tested on: ultra-dwarf Bermuda grass; assay: Phytotoxicity rating, ultra-dwarf Bermuda grass greens (Example 11); settings: scale 0-5, 5=worst
Description: In this Example, the effect of a fertilizer comprising lysine on warm season turfgrass growth was examined. The effects of lysine (HCl) and LIQUID LYSINE on a common type of golf course greens quality turfgrass (ultra-dwarf Bermuda grass) were compared with those of urea and Milorganite.
Twelve fertilizer treatments comprising three concentrations of each fertilizer composition (Milorganite (N—P—K, 6-2-0), urea (N—P—K, 46-0-0), LIQUID LYSINE (N—P—K, 10-2-1), and lysine (HCl) (N—P—K, 15-2-1)) were prepared and applied to 3 replications of ultra-dwarf Bermuda grass. The lysine (HCl) was dissolved in water prior to application. Each fertilizer treatment was applied in concentrations of 0.125 lb N/1000 ft^2/week, 0.25 lb N/1000 ft^2/week and 0.75 lb N/1000 ft^2/week. The urea, LIQUID LYSINE and lysine (HCl) were applied as foliar liquids, while Milorganite was applied as a granular fertilizer. Plot size was 1 m×1 m set up as a randomized complete block. Plots were mowed at 0.125 inches before fertilizer application. Irrigation (0.15 inch) was applied following application. Plots were rated for turfgrass quality and color (scale of 1-10 where 10=dark green turf, 1=dead/brown turf, and 6=initially acceptable turf) and phytotoxicity (scale of 0-5, where 5=worst, and 2=minimally objectionable) throughout the study period. Quality, color, and phytotoxicity were measured on 2 days before application (day −2) and day 2, day 5, day 15 and day 21 after application. All data was subject to statistical analysis and significant means were determined. Average turfgrass quality ratings for the treatments are presented in Table 12 and the quality results for application rates of 0.25 lb N/1000 ft^2/week are graphically presented in FIG. 6.

[2] = tested on: Pennlinks creeping bentgrass maintained as a golf fairway; assay: Phytotoxic injury rating, fairway creeping bentgrass (Example 15)
Description: In this Example, the effect of a fertilizer comprising lysine on cool season fairway turfgrass growth was examined. The effects of lysine (HCl) and LIQUID LYSINE on a common type of golf course fairway variety turfgrass (Pennlinks creeping bentgrass maintained as a golf fairway) were compared with those of urea, Milorganite and a blended fertilizer (a blend of methylene urea and urea in an approximately 1:1 ratio).
Fifteen fertilizer treatments comprising three concentrations of each fertilizer composition (Milorganite (N—P—K, 6-2-0), urea (N—P—K, 46-0-0), a blended fertilizer, LIQUID LYSINE (N—P—K, 10-2-1), and lysine (HCl) (N—P—K, 15-2-1)) were prepared and applied to 3 replications of a well established Pennlinks creeping bentgrass maintained as a golf fairway grass. The urea, lysine (HCl), and LIQUID LYSINE were dissolved/suspended in 1.5 gal water prior to application. […] The urea, LIQUID LYSINE and lysine (HCl) were applied as foliar liquids, while Milorganite and the blended fertilizer were applied as granular fertilizers. Plot size was 4 ft×8 ft laid out in a replicated complete block design. Plots were mowed at 0.5 inches before fertilizer application and mowed three times per week to 0.5 inch height. Grass clippings were not removed from the plots and no supplemental cultural maintenance was applied. Irrigation (0.15 inch) was applied following application and every other day thereafter. Plots were rated for turfgrass quality (scale of 1-9 where 9=dark green turf, 1=dead/brown turf, and 6=minimally acceptable turf and phytotoxic injury (scale of 0-9 where 9=significant foliar injury and 2=minimally objectional foliar injury) throughout the study period. Quality was measured prior to application (day 0) and day 37, day 70 and day 95 after application. Injury was measured on day 37, day 70 and day 95 after application. All data was subject to statistical analysis and significant means were determined. Average turfgrass quality ratings for the treatments are presented in Table 24.

[3] = tested on: Moonlight Kentucky bluegrass; assay: Blade density rating, Kentucky bluegrass lawn (Example 17); settings: Day 70
Description: In this Example, the effect of a fertilizer comprising lysine on cool season lawn variety turfgrass growth was examined. The effects of lysine (HCl) and LIQUID LYSINE on a common variety of law turfgrass (Moonlight Kentucky bluegrass) were compared with those of urea, Milorganite and a blended fertilizer (a blend of methylene urea and urea in an approximately 1:1 ratio).
Fifteen fertilizer treatments comprising three concentrations of each fertilizer composition (Milorganite N—P—K, 6-2-0), urea (N—P—K, 46-0-0), a blended fertilizer, LIQUID LYSINE (N—P—K, 10-2-1), and lysine (HCl) (N—P—K, 15-2-1)) were prepared and applied to 3 replications of newly established “Moonlight” variety Kentucky bluegrass lawn turfgrass. The urea, lysine (HCl), and LIQUID LYSINE were dissolved/suspended in 1.5 gal water prior to application. […], 1.0 lb N/1000 ft^2/year and 3.0 lb N/1000 ft^2/year, The urea, LIQUID LYSINE and lysine (HCl) were applied as foliar liquids, while Milorganite and the blended fertilizer were applied as granular fertilizers. Plot size was 4 ft×8 ft laid out in a replicated complete block design. Plots were mowed at 2.0 inches before fertilizer application and mowed two times per week to 2.0 inch height. Grass clippings were not removed from the plots and no supplemental cultural maintenance or pest management was applied. Irrigation (0.15 inch) was applied following application and thereafter only when necessary to insure survival of the turf. Plots were rated for turfgrass quality (scale of 1-9 where 9=dark green turf, 1=dead/brown turf, and 6=minimally acceptable turf) and phytotoxic injury (scale of 0-9 where 9=significant foliar injury and 2=minimally objectionable foliar injury) throughout the study period. Quality was measured prior to application (day 0) and day 37, day 70 and day 95 after application. Injury was measured on day 37 and day 70 after application. In addition, blade density of the grass was measured on day 70 after application (scale of 1-9, where 9=very dense turf, 1=low density turf). All data was subject to statistical analysis and significant means were determined.

[4] = Weekly Rate 0.125 lbs N/1000 ft^2, Day 2
[5] = Weekly Rate 0.125 lbs N/1000 ft^2, Day 5
[6] = Weekly Rate 0.125 lbs N/1000 ft^2, Day 15
[7] = Weekly Rate 0.125 lbs N/1000 ft^2, Day 21
[8] = Weekly Rate 0.125 lbs N/1000 ft^2, Day −2 (before application)
[9] = Weekly Rate 0.25 lbs N/1000 ft^2, Day 2
[10] = Weekly Rate 0.25 lbs N/1000 ft^2, Day 5
[11] = Weekly Rate 0.25 lbs N/1000 ft^2, Day 15
[12] = Weekly Rate 0.25 lbs N/1000 ft^2, Day 21
[13] = Weekly Rate 0.25 lbs N/1000 ft^2, Day −2 (before application)
[14] = Weekly Rate 0.75 lbs N/1000 ft^2, Day 2
[15] = Weekly Rate 0.75 lbs N/1000 ft^2, Day 5
[16] = Weekly Rate 0.75 lbs N/1000 ft^2, Day 15
[17] = Weekly Rate 0.75 lbs N/1000 ft^2, Day 21
[18] = Weekly Rate 0.75 lbs N/1000 ft^2, Day −2 (before application)
[19] = Weekly Rate 0.5 lbs N/1000 ft^2, Day 37
[20] = Weekly Rate 0.5 lbs N/1000 ft^2, Day 70
[21] = Weekly Rate 0.5 lbs N/1000 ft^2, Day 95
[22] = Weekly Rate 1.0 lbs N/1000 ft^2, Day 37
[23] = Weekly Rate 1.0 lbs N/1000 ft^2, Day 70
[24] = Weekly Rate 1.0 lbs N/1000 ft^2, Day 95
[25] = Weekly Rate 3.0 lbs N/1000 ft^2, Day 37
[26] = Weekly Rate 3.0 lbs N/1000 ft^2, Day 70
[27] = Weekly Rate 3.0 lbs N/1000 ft^2, Day 95
[28] = Weekly Rate 0.5 lbs N/1000 ft^2
[29] = Weekly Rate 1.0 lbs N/1000 ft^2
[30] = Weekly Rate 3.0 lbs N/1000 ft^2

| Compound | Phytotoxicity - Dwarf Bermuda Grass [1, 4] | Phytotoxicity - Dwarf Bermuda Grass [1, 5] | Phytotoxicity - Dwarf Bermuda Grass [1, 6] | Phytotoxicity - Dwarf Bermuda Grass [1, 7] | Phytotoxicity - Dwarf Bermuda Grass [1, 8] | Phytotoxicity - Dwarf Bermuda Grass [1, 9] | Phytotoxicity - Dwarf Bermuda Grass [1, 10] | Phytotoxicity - Dwarf Bermuda Grass [1, 11] | Phytotoxicity - Dwarf Bermuda Grass [1, 12] | Phytotoxicity - Dwarf Bermuda Grass [1, 13] | Phytotoxicity - Dwarf Bermuda Grass [1, 14] | Phytotoxicity - Dwarf Bermuda Grass [1, 15] | Phytotoxicity - Dwarf Bermuda Grass [1, 16] | Phytotoxicity - Dwarf Bermuda Grass [1, 17] | Phytotoxicity - Dwarf Bermuda Grass [1, 18] | Injury Rating - Fairway Bentgrass [2, 19] [ab] | Injury Rating - Fairway Bentgrass [2, 20] | Injury Rating - Fairway Bentgrass [2, 21] [bc] | Injury Rating - Fairway Bentgrass [2, 22] | Injury Rating - Fairway Bentgrass [2, 23] | also measured |
| --- | --- | --- | --- | --- | --- | --- | --- | --- | --- | --- | --- | --- | --- | --- | --- | --- | --- | --- | --- | --- | --- |
| Cl.NCCCC[C@H](N)C(=O)O [Lys (HCl) 15% N, L-lysine monohydrochloride] | 0 | 0 | 0 | 0 | 0 | 0 | 0 | 0 | 0 | 0 | 0 | 0 | 0 | 0 | 0 | 1.3 | 5.7 | 2.0 | 1.0b | 5.0 | Injury Rating - Fairway Bentgrass [2, 24]: 3.0abc; Injury Rating - Fairway Bentgrass [2, 25]: 2.0a; Injury Rating - Fairway Bentgrass [2, 26]: 4.7; Injury Rating - Fairway Bentgrass [2, 27]: 2.0bc; Density Rating - Kentucky Bluegrass [3, 28]: 5.3cde; Density Rating - Kentucky Bluegrass [3, 29]: 6.3abc; Density Rating - Kentucky Bluegrass [3, 30]: 7.0ab |
| NC(N)=O [Urea, urea, reference compound] | 0 | 0 | 0 | 0 | 0 | 0 | 0 | 0 | 0 | 0 | 0 | 0 | 0 | 0 | 0 | 1.3 | 6.3 | 2.0 | 1.3ab | 6.0 | Injury Rating - Fairway Bentgrass [2, 24]: 1.3c; Injury Rating - Fairway Bentgrass [2, 25]: 1.0b; Injury Rating - Fairway Bentgrass [2, 26]: 5.7; Injury Rating - Fairway Bentgrass [2, 27]: 4.3a; Density Rating - Kentucky Bluegrass [3, 28]: 5.0de; Density Rating - Kentucky Bluegrass [3, 29]: 5.3cde; Density Rating - Kentucky Bluegrass [3, 30]: 7.0ab |
